Assay results taken from ChEMBL document CHEMBL1141903, “Synthesis and evaluation of CCR5 antagonists containing modified 4-piperidinyl-2-phenyl-1-(phenylsulfonylamino)-butane” (Bioorg Med Chem Lett, 2005).

Tests used:
[1] = molecular target: C-C chemokine receptor type 5 (Homo sapiens, UniProt P51681); experiment: Inhibitory concentration against human C-C chemokine receptor type 5 in CHO cells with [125I]-MIP-1 alpha radioligand; format: cell-based
[2] = system: Human immunodeficiency virus 1; experiment: Antiviral activity in an in vitro HIV replication assay; format: functional, organism-based

Chain of C-C chemokine receptor type 5 (P51681 whole entry): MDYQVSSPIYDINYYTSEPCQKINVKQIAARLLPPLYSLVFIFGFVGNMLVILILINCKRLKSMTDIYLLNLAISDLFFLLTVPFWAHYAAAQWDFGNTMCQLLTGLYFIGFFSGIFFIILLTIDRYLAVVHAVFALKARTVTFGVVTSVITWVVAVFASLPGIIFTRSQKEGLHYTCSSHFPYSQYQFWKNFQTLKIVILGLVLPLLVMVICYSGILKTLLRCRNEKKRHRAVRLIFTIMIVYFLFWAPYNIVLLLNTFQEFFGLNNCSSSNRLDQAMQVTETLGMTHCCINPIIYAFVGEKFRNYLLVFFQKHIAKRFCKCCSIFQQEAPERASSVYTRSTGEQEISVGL

IC50 [1] [µM] | IC90 ([2]; Human immunodeficiency virus 1) [µM] | IC90 [2] [µM] | Compound
> 0.1 |  |  | CN(C[C@@H](CCN1CCC(N2C[C@H](c3ccccc3)OC2=O)CC1)c1ccccc1)S(=O)(=O)c1ccccc1
0.0367 |  |  | C[C@H]1[C@@H](c2ccccc2)OC(=O)N1C1CCN(CC[C@H](CN(C)S(=O)(=O)c2ccccc2)c2ccccc2)CC1
0.016 |  |  | CN(C[C@@H](CCN1CCC2C(CCN2C(=O)OC(C)(C)C)C1)c1ccccc1)S(=O)(=O)c1ccccc1 (some centres undefined)
0.0036 | 0.111 |  | CN(C[C@](C)(CCN1CCC2C(CCN2C(=O)OCc2ccc([N+](=O)[O-])cc2)C1)c1ccccc1)S(=O)(=O)c1ccccc1 (mixture of isomers)
0.009 | > 0.3 |  | CN(C[C@@](C)(CCN1CCC2C(CCN2C(=O)OCc2ccccc2)C1)c1ccccc1)S(=O)(=O)c1ccccc1 (mixture of isomers)
0.028 | > 0.3 |  | CN1C(=O)CCC2CN(CC[C@](C)(CN(C)S(=O)(=O)c3ccccc3)c3ccccc3)CCC21 (mixture of isomers)
0.002 | 0.1 |  | CN(CC(C)(CCN1CCC2C(CCN2C(=O)OC(C)(C)C)C1)c1ccccc1)S(=O)(=O)c1ccccc1 (single isomer, unassigned; isomer B)

Continued, molecule first:

Compound | IC50 [1] [µM] | IC90 ([2]; Human immunodeficiency virus 1) [µM] | IC90 [2] [µM]
C[C@@H]1[C@@H](c2ccccc2)OC(=O)N1C1CCN(CC[C@H](CN(C)S(=O)(=O)c2ccccc2)c2ccccc2)CC1 | 0.35 |  | 
CN(C[C@@H](CCN1CCC(N2C[C@@H](c3ccccc3)OC2=O)CC1)c1ccccc1)S(=O)(=O)c1ccccc1 | 0.0319 |  | 
CN(C[C@@](C)(CCN1CCC2C(CCC(=O)N2Cc2ccccc2)C1)c1ccccc1)S(=O)(=O)c1ccccc1 (some centres undefined) | 0.01 | 0.333 | 
C=CCN(C(=O)OCc1ccc([N+](=O)[O-])cc1)C1CCN(CC[C@](C)(CN(C)S(=O)(=O)c2ccccc2)c2ccccc2)CC1 | 0.001 | 0.003 | 
CN(C[C@@](C)(CCN1CCC2C(CCC(=O)N2Cc2ccc([N+](=O)[O-])cc2)C1)c1ccccc1)S(=O)(=O)c1ccccc1 (mixture of isomers) | 0.0053 | 0.333 | 
CN(C[C@@](C)(CCN1CCC2C(CCN2C(=O)OC(C)(C)C)C1)c1ccccc1)S(=O)(=O)c1ccccc1 (mixture of isomers) | 0.011 | 0.111 | 
CN(C[C@@](C)(CCN1CCC2NCCC2C1)c1ccccc1)S(=O)(=O)c1ccccc1 (mixture of isomers) | > 2 |  | 
CN(C[C@@](C)(CCN1CCC2C(CCN2C(=O)Cc2ccccc2)C1)c1ccccc1)S(=O)(=O)c1ccccc1 (mixture of isomers) | 0.0064 | 0.111 | 
CN(CC(C)(CCN1CCC2C(CCN2C(=O)OC(C)(C)C)C1)c1ccccc1)S(=O)(=O)c1ccccc1 (single isomer, unassigned; isomer A) | > 2 |  | 
CN(CC(C)(CCN1CCC2C(CCN2C(=O)OCc2ccc([N+](=O)[O-])cc2)C1)c1ccccc1)S(=O)(=O)c1ccccc1 (single isomer, unassigned; isomer A) | 0.021 |  | 0.3
CN(CC(C)(CCN1CCC2C(CCN2C(=O)OCc2ccc([N+](=O)[O-])cc2)C1)c1ccccc1)S(=O)(=O)c1ccccc1 (single isomer, unassigned; isomer B) | 0.002 |  | 0.033
